The source of these data is patent US20120225062A1 (priority 2011, published 2012).

Test [1] concerns the target Pim 1 (Homo sapiens, UniProt P11309). The test can be described thus: Pim 1 AlphaScreen assay (high ATP). A general note: Bead proximity is the source of the signal in Alpha formats.
For test [2], the target named is Pim 2 (Homo sapiens, UniProt Q9P1W9). In words: Pim 2 AlphaScreen assay (high ATP).
In test [3] the target is Pim 3 (Homo sapiens, UniProt Q86V86). In words: Pim 3 AlphaScreen assay (high ATP).
Test [4] relates to KMS11 (human myeloma cell line). In words: Cell Proliferation Assay (CellTiter-Glo, 3 days). Particulars: KMS-11, 72 h, KMS11-luc cells. The format is cell-based. Put shortly:
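KMS11 myeloma cells, 2000 per well in IMDM with 10% FBS, exposed to compound for 3 days at 37° C. Viability read by CellTiter-Glo luminescence; EC50 derived.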
In general terms: In ATP-based viability assays light output follows the ATP content of the culture.

Chain of Pim 1 (P11309 whole entry): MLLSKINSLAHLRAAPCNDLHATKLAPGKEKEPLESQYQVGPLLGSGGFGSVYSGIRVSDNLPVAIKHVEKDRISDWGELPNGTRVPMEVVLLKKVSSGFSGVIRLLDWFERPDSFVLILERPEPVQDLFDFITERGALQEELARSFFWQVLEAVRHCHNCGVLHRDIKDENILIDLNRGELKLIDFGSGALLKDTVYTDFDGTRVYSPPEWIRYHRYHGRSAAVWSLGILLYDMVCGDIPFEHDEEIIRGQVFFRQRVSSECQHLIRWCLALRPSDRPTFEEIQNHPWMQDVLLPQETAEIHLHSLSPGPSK
Chain of Pim 2 (Q9P1W9 whole entry): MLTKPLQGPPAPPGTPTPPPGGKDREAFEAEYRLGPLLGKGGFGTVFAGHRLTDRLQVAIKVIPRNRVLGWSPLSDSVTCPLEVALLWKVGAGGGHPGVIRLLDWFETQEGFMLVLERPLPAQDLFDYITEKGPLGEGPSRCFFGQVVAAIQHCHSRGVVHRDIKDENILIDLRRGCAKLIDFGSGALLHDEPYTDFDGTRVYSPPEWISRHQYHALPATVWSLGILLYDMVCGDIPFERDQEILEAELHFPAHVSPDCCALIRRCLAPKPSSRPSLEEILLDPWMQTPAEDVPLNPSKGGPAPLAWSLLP

Broadly, the IC50 is the concentration needed to halve the response being measured. Higher therefore signals weaker potency in that assay. As usually defined, the EC50 is the concentration at which the effect is half-maximal. Low values mean higher potency in that assay, high ones lower potency in that assay. `COc1ccc(F)c(-c2nc(C(=O)Nc3cnccc3N3C[C@@H](N)[C@H](O)[C@@H](C)C3)ccc2F)c1F` [Example 214, N-(4-((3R,4R,5S)-3-amino-4-hydroxy-5-methylpiperidin-1-yl)pyridin-3-yl)-6-(2,6-difluoro-3-methoxyphenyl)-5-fluoropicolinamide]: the IC50 was 0.03 nM in test [1], 1.07 nM in test [2] and 0.37 nM in test [3]. The response in test [4] was half-maximal at 32 nM (EC50).

For the compound `COC(=O)c1cc(F)c(-c2nc(C(=O)Nc3cnccc3N3C[C@@H](N)[C@H](O)[C@@H](C)C3)ccc2F)c(F)c1` [Example 215, methyl 4-(6-((4-((3R,4R,5S)-3-amino-4-hydroxy-5-methylpiperidin-1-yl)pyridin-3-yl)carbamoyl)-3-fluoropyridin-2-yl)-3,5-difluorobenzoate], the values for the IC50 in test [1], in test [2] and in test [3] were 0.06 nM, 2.54 nM and 0.88 nM, respectively. For the same compound, it took 36 nM to reach a half-maximal effect in test [4] (EC50).

Consider `CCOc1ccc(F)c(-c2nc(C(=O)Nc3cnccc3N3C[C@@H](N)[C@H](O)[C@@H](C)C3)ccc2F)c1F` [Example 216, N-(4-((3R,4R,5S)-3-amino-4-hydroxy-5-methylpiperidin-1-yl)pyridin-3-yl)-6-(3-ethoxy-2,6-difluorophenyl)-5-fluoropicolinamide], for which the IC50 is 0.02 nM in test [1], 2.02 nM in test [2] and 0.39 nM in test [3]. A half-maximal effect in test [4] (EC50) was put at 28 nM.

Regarding `Cc1cc(F)c(-c2nc(C(=O)Nc3cnccc3[C@H]3C[C@@H](N)[C@H](O)[C@@H](C)C3)c(N)cc2F)c(F)c1` [Example 219, 3-amino-N-(4-((1R,3R,4R,5S)-3-amino-4-hydroxy-5-methylcyclohexyl)pyridin-3-yl)-6-(2,6-difluoro-4-methylphenyl)-5-fluoropicolinamide], the IC50 in test [1] came to 0.03 nM; in test [2] it was 2.01 nM; in test [3], 0.65 nM. In test [4], this compound registered an EC50 of 23 nM.

Turning to `C[C@@H]1C[C@H](N)C[C@H](c2ccncc2NC(=O)c2nc(-c3c(F)cc(C4(O)CCC4)cc3F)c(F)cc2N)C1` [Example 220, 3-amino-N-(4-((1R,3S,5S)-3-amino-5-methylcyclohexyl)pyridin-3-yl)-6-(2,6-difluoro-4-(1-hydroxycyclobutyl)phenyl)-5-fluoropicolinamide], the IC50 in test [1] amounted to 0.01 nM; in test [2] it was 0.64 nM; in test [3] it was 0.14 nM. In test [4], this compound registered an EC50 of 8 nM.

Regarding `C[C@@H]1C[C@H](N)C[C@H](c2ccncc2NC(=O)c2nc(-c3c(F)cc(C4(O)COC4)cc3F)c(F)cc2N)C1` [Example 221, 3-amino-N-(4-((1R,3S,5S)-3-amino-5-methylcyclohexyl)pyridin-3-yl)-6-(2,6-difluoro-4-(3-hydroxyoxetan-3-yl)phenyl)-5-fluoropicolinamide], the IC50 came out at 0.01 nM in test [1], 0.73 nM in test [2] and 0.13 nM in test [3]. Also, in test [4], a half-maximal response (EC50) required 4 nM.

Take `Cc1cc(F)c(-c2nc(C(=O)Nc3cnccc3[C@@H]3C[C@H](C)C[C@H](N)C3)c(N)cc2F)c(F)c1` [Example 222, 3-amino-N-(4-((1R,3S,5S)-3-amino-5-methylcyclohexyl)pyridin-3-yl)-6-(2,6-difluoro-4-methylphenyl)-5-fluoropicolinamide]: the IC50 in test [1] came to 0.01 nM; in test [2], 0.81 nM; in test [3], 0.35 nM. In addition, the EC50 in test [4] came to 23 nM.

For `C[C@@H]1C[C@H](N)C[C@H](c2ccncc2NC(=O)c2ccc(F)c(-c3c(F)cc([S@+](C)[O-])cc3F)n2)C1` [Example 227, N-(4-((1R,3S,5S)-3-amino-5-methylcyclohexyl)pyridin-3-yl)-6-(2,6-difluoro-4-((S)-methylsulfinyl)phenyl)-5-fluoropicolinamide], the IC50 in test [1] came out at 0.16 nM; in test [2], 17.3 nM; in test [3], 23.9 nM. The compound also came in with an EC50 in test [4] of 221 nM.

Take `C[C@@H]1C[C@H](N)C[C@H](c2ccncc2NC(=O)c2ccc(F)c(-c3c(F)cc([S@@+](C)[O-])cc3F)n2)C1` [Example 228, N-(4-((1R,3S,5S)-3-amino-5-methylcyclohexyl)pyridin-3-yl)-6-(2,6-difluoro-4-((R)-methylsulfinyl)phenyl)-5-fluoropicolinamide]: the IC50 in test [1] is 0.14 nM; in test [2], 6.26 nM; in test [3] it was 7.85 nM. In test [4], this compound returned an EC50 of 94 nM.

As to `C[C@@H]1C[C@H](N)C[C@H](c2ccncc2NC(=O)c2ccc(F)c(-c3c(F)cc(OCCO)cc3F)n2)C1` [Example 229, N-(4-((1R,3S,5S)-3-amino-5-methylcyclohexyl)pyridin-3-yl)-6-(2,6-difluoro-4-(2-hydroxyethoxy)phenyl)-5-fluoropicolinamide], the values for the IC50 in test [1], in test [2] and in test [3] were 0.03 nM, 2.58 nM and 0.82 nM, respectively. In test [4], this compound returned an EC50 of 26 nM.

Regarding `C[C@@H]1C[C@H](N)C[C@H](c2ccncc2NC(=O)c2ccc(F)c(-c3c(F)cc([C@H](O)CO)cc3F)n2)C1` [Example 231, N-(4-((1R,3S,5S)-3-amino-5-methylcyclohexyl)pyridin-3-yl)-6-(4-((S)-1,2-dihydroxyethyl)-2,6-difluorophenyl)-5-fluoropicolinamide], the IC50 in test [1] was determined as 0.04 nM; in test [2], 2.6 nM; in test [3], 1.53 nM. This compound gave an EC50 in test [4] of 46 nM.

Consider `C[C@@H]1C[C@H](N)C[C@H](c2ccncc2NC(=O)c2ccc(F)c(-c3c(F)cc([C@@H](O)CO)cc3F)n2)C1` [Example 232, N-(4-((1R,3S,5S)-3-amino-5-methylcyclohexyl)pyridin-3-yl)-6-(4-((R)-1,2-dihydroxyethyl)-2,6-difluorophenyl)-5-fluoropicolinamide], for which the IC50 was determined as 0.05 nM in test [1], 3.01 nM in test [2] and 2.07 nM in test [3]. The compound further came in with an EC50 in test [4] of 47 nM.

Regarding `C[C@H]1CN(c2ccncc2NC(=O)c2ccc(F)c(-c3c(F)cc([C@H](O)CO)cc3F)n2)C[C@@H](N)[C@@H]1O` [Example 233, N-(4-((3R,4R,5S)-3-amino-4-hydroxy-5-methylpiperidin-1-yl)pyridin-3-yl)-6-(4-((S)-1,2-dihydroxyethyl)-2,6-difluorophenyl)-5-fluoropicolinamide], the results for the IC50 in test [1], in test [2] and in test [3] were 0.04 nM, 2.2 nM and 1.03 nM, respectively. In addition, in test [4], the response was half-maximal at 20 nM (EC50).

Turning to `C[C@H]1CN(c2ccncc2NC(=O)c2ccc(F)c(-c3c(F)cc([C@@H](O)CO)cc3F)n2)C[C@@H](N)[C@@H]1O` [Example 234, N-(4-((3R,4R,5S)-3-amino-4-hydroxy-5-methylpiperidin-1-yl)pyridin-3-yl)-6-(4-((R)-1,2-dihydroxyethyl)-2,6-difluorophenyl)-5-fluoropicolinamide], the results for the IC50 in test [1], in test [2] and in test [3] were 0.04 nM, 1.77 nM and 0.65 nM, respectively. This compound also came in with an EC50 in test [4] of 9 nM.

`CCc1cc(F)c(-c2nc(C(=O)Nc3cnccc3N3C[C@@H](N)[C@H](O)[C@@H](C)C3)ccc2F)c(F)c1` [Example 235, N-(4-((3R,4R,5S)-3-amino-4-hydroxy-5-methylpiperidin-1-yl)pyridin-3-yl)-6-(4-ethyl-2,6-difluorophenyl)-5-fluoropicolinamide]: the IC50 is 0.02 nM in test [1], 0.87 nM in test [2] and 0.25 nM in test [3]. The same compound showed an EC50 in test [4] of 20 nM.

With `C[C@H]1C[C@@H](c2ccncc2NC(=O)c2ccc(F)c(-c3c(F)cc4c(c3F)OCC[C@]4(C)O)n2)C[C@@H](N)[C@@H]1O` [Example 237, N-(4-((1R,3R,4R,5S)-3-amino-4-hydroxy-5-methylcyclohexyl)pyridin-3-yl)-6-((S)-6,8-difluoro-4-hydroxy-4-methylchroman-7-yl)-5-fluoropicolinamide], the IC50 in test [1] amounted to 0.25 nM; in test [2], 14.2 nM; in test [3] it was 16 nM. Besides, a half-maximal response in test [4] (EC50) required 181 nM.

With `C[C@H]1C[C@@H](c2ccncc2NC(=O)c2ccc(F)c(-c3c(F)cc4c(c3F)OCC[C@@]4(C)O)n2)C[C@@H](N)[C@@H]1O` [Example 238, N-(4-((1R,3R,4R,5S)-3-amino-4-hydroxy-5-methylcyclohexyl)pyridin-3-yl)-6-((R)-6,8-difluoro-4-hydroxy-4-methylchroman-7-yl)-5-fluoropicolinamide], the IC50 amounted to 0.04 nM in test [1], 3.15 nM in test [2] and 1.36 nM in test [3]. In test [4], this compound yielded an EC50 of 55 nM.

On to `C[C@@H]1C[C@H](N)C[C@H](c2ccncc2NC(=O)c2ccc(F)c(-c3c(F)cc4c(c3F)OCC[C@]4(C)O)n2)C1` [Example 239, N-(4-((1R,3S,5S)-3-amino-5-methylcyclohexyl)pyridin-3-yl)-6-((S)-6,8-difluoro-4-hydroxy-4-methylchroman-7-yl)-5-fluoropicolinamide], for which the IC50 in test [1] is 0.01 nM; in test [2] it was 1.72 nM; in test [3], 1.1 nM. This compound came in with an EC50 in test [4] of 31 nM.

With `C[C@@H]1C[C@H](N)C[C@H](c2ccncc2NC(=O)c2ccc(F)c(-c3c(F)cc4c(c3F)OCC[C@@]4(C)O)n2)C1` [Example 240, N-(4-((1R,3S,5S)-3-amino-5-methylcyclohexyl)pyridin-3-yl)-6-((R)-6,8-difluoro-4-hydroxy-4-methylchroman-7-yl)-5-fluoropicolinamide], the IC50 in test [1] was determined as 0.02 nM; in test [2] it was 1.67 nM; in test [3] it was 0.43 nM. The compound also gave an EC50 in test [4] of 23 nM.
